PubChem BioAssay AID330 (DTP/NCI, 2004)
Values joined by “and” are separate entries in the source; they are usually repeats but may differ in a detail not shown here. Identical values can stand only once. Toxic doses and inconclusive results are not listed. Rule for the calls: active = survival T/C of 150% or more; inactive = T/C below 125% in these data.

Test system: P388 leukemia ip, CD2F1 mice, survival T/C
Experiment: NCI In Vivo Anticancer Drug Screen. Data for tumor model P388 Leukemia (intraperitoneal) in CD2F1 (CDF1) mice
Conditions: endpoint: median survival time, higher = longer survival
How it was run: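 Mice carrying the transplanted tumor received test compound or vehicle. Survival was recorded in each group, and the value is the treated-group measurement divided by that of the vehicle-treated control group.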

[1] = dose: 50.0 mg/kg/injection, schedule: Q01DX005 (ip), vehicle: saline with Tween-80
[2] = dose: 100.0 mg/kg/injection, schedule: Q01DX005 (ip), vehicle: saline with Tween-80
[3] = dose: 60.0 mg/kg/injection, schedule: Q01DX005 (ip), vehicle: saline with Tween-80
[4] = dose: 120.0 mg/kg/injection, schedule: Q01DX005 (ip), vehicle: saline with Tween-80
[5] = dose: 240.0 mg/kg/injection, schedule: Q01DX005 (ip), vehicle: saline with Tween-80
[6] = dose: 25.0 mg/kg/injection, schedule: Q04DX003 (ip), vehicle: saline with Tween-80
[7] = dose: 50.0 mg/kg/injection, schedule: Q04DX003 (ip), vehicle: saline with Tween-80
[8] = dose: 100.0 mg/kg/injection, schedule: Q04DX003 (ip), vehicle: saline with Tween-80
[9] = dose: 50.0 mg/kg/injection, schedule: Q04DX003 (ip), vehicle: saline
[10] = dose: 100.0 mg/kg/injection, schedule: Q04DX003 (ip), vehicle: saline
[11] = dose: 200.0 mg/kg/injection, schedule: Q04DX003 (ip), vehicle: saline
[12] = dose: 15.0 mg/kg/injection, schedule: Q01DX005 (ip), vehicle: saline with Tween-80
[13] = dose: 30.0 mg/kg/injection, schedule: Q01DX005 (ip), vehicle: saline with Tween-80
[14] = dose: 50.0 mg/kg/injection, schedule: Q01DX009 (ip), vehicle: saline with Tween-80
[15] = dose: 100.0 mg/kg/injection, schedule: Q01DX009 (ip), vehicle: saline with Tween-80
[16] = dose: 200.0 mg/kg/injection, schedule: Q01DX009 (ip), vehicle: saline with Tween-80
[17] = dose: 100.0 mg/kg/injection, schedule: Q01DX009 (ip), vehicle: saline
[18] = dose: 200.0 mg/kg/injection, schedule: Q01DX009 (ip), vehicle: saline
[19] = dose: 50.0 mg/kg/injection, schedule: Q01DX009 (ip), vehicle: saline

Measured: T/C

COC(=O)C12C=CC(C(=O)OC)(CC1)n1c(=O)n(-c3ccccc3)c(=O)n12
inactive: [1] 107 % of control | [2] 100 % of control | dose: 200.0 mg/kg/injection, schedule: Q01DX005 (ip), vehicle: saline with Tween-80 100 % of control

CC(C)(C)N1OC2(c3ccccc3)OC3N(C(C)(C)C)OC4(c5ccccc5)OC1C2(c1ccccc1)C34c1ccccc1 (stereo not drawn)
inactive: [3] 111 % of control | [4] 87 % of control | [5] 86 % of control

N#Cc1cnc2nc1NCCCCCCC2
inactive: [6] 105 % of control | [7] 98 % of control | [8] 100 % of control

CC1(C)CC(=O)C(C2=NCCCC2)=C(O)C1
inactive: dose: 100.0 mg/kg/injection, schedule: Q04DX002 (ip), vehicle: saline with Tween-80 102 % of control | dose: 200.0 mg/kg/injection, schedule: Q04DX002 (ip), vehicle: saline with Tween-80 100 % of control | dose: 400.0 mg/kg/injection, schedule: Q04DX002 (ip), vehicle: saline with Tween-80 100 % of control

Sc1cn2ccccc2n1
inactive: [9] 105 % of control | [10] 97 % of control | [11] 103 % of control

O=C1C2C(C(=O)N1c1ccccc1)C1(c3cccnc3)NC(=O)C2(Cc2cccnc2)c2ccccc21 (stereo not drawn)
inactive: [12] 104 % of control | [13] 100 % of control and 96 % of control | [3] 104 % of control and 88 % of control and 91 % of control | [4] 88 % of control | [5] 86 % of control

c1cncc(-c2n[nH]c3c2CCc2ccccc2-3)c1
inactive: dose: 12.5 mg/kg/injection, schedule: Q01DX009 (ip), vehicle: other 121 % of control | dose: 37.5 mg/kg/injection, schedule: Q01DX009 (ip), vehicle: other 86 % of control | dose: 50.0 mg/kg/injection, schedule: Q01DX009 (ip), vehicle: other 121 % of control | dose: 75.0 mg/kg/injection, schedule: Q01DX009 (ip), vehicle: other 113 % of control | dose: 100.0 mg/kg/injection, schedule: Q01DX009 (ip), vehicle: other 111 % of control | dose: 150.0 mg/kg/injection, schedule: Q01DX009 (ip), vehicle: other 100 % of control | dose: 200.0 mg/kg/injection, schedule: Q01DX009 (ip), vehicle: other 101 % of control | dose: 300.0 mg/kg/injection, schedule: Q01DX009 (ip), vehicle: other 104 % of control

Nc1nc2c(ncn2C2OC(CO)C(O)C2N)c(=O)[nH]1 (stereo not drawn)
inactive: dose: 25.0 mg/kg/injection, schedule: Q01DX009 (ip), vehicle: saline with Tween-80 106 % of control and 97 % of control | [6] 103 % of control | dose: 25.0 mg/kg/injection, schedule: Q04DX003 (ip), vehicle: saline 101 % of control | [14] 100 % of control and 107 % of control | [7] 96 % of control | [9] 104 % of control | [15] 106 % of control | [8] 101 % of control | [10] 100 % of control and 105 % of control | [16] 100 % of control | dose: 200.0 mg/kg/injection, schedule: Q04DX003 (ip), vehicle: saline with Tween-80 104 % of control | [11] 98 % of control and 108 % of control | dose: 400.0 mg/kg/injection, schedule: Q04DX003 (ip), vehicle: saline with Tween-80 101 % of control | dose: 400.0 mg/kg/injection, schedule: Q04DX003 (ip), vehicle: saline 105 % of control and 107 % of control

NC(N)=NS(=O)(=O)c1ccc(N=c2c3ccccc3n(-c3ccccc3)c3ccccc23)cc1
inactive: [1] 90 % of control | [2] 87 % of control

COc1cc(C2NCCc3cc4c(cc32)OCO4)cc(OC)c1OC (stereo not drawn)
inactive: [1] 100 % of control | [2] 100 % of control

CC1(C)Oc2ccc3ccc(=O)oc3c2C(O)C1O (stereo not drawn)
inactive: dose: 50.0 mg/kg/injection, schedule: Q01DX005 (ip), vehicle: Klucel (hydroxypropylcellulose) (HPC) 97 % of control | dose: 100.0 mg/kg/injection, schedule: Q01DX005 (ip), vehicle: Klucel (hydroxypropylcellulose) (HPC) 96 % of control | dose: 200.0 mg/kg/injection, schedule: Q01DX005 (ip), vehicle: Klucel (hydroxypropylcellulose) (HPC) 92 % of control

Cc1c2cc[n+](C)cc2c(COC2OC(CO)C(O)C2O)c2c3ccccc3n(C)c12 (stereo not drawn)
inactive: dose: 60.0 mg/kg/injection, schedule: Q01DX005 (ip), vehicle: Klucel (hydroxypropylcellulose) (HPC) 123 % of control

CCN(CC)CC.CCOc1ccc(NC(=O)N=C=[N-])cc1.[CH-]1CCCCC1.[CH-]1CCCCC1.[CH-]1CCCCC1.[Cl-].[Sn+4]
inactive: dose: 6.0 mg/kg/injection, schedule: Q01DX005 (ip), vehicle: Klucel (hydroxypropylcellulose) (HPC) 101 % of control | dose: 12.0 mg/kg/injection, schedule: Q01DX005 (ip), vehicle: Klucel (hydroxypropylcellulose) (HPC) 89 % of control

COCCOCCN1CCN(CCCN2c3ccccc3Sc3ccc(C(F)(F)F)cc32)CC1
inactive: dose: 1.56 mg/kg/injection, schedule: Q04DX003 (ip), vehicle: saline 95 % of control | dose: 3.0 mg/kg/injection, schedule: Q04DX003 (ip), vehicle: saline 104 % of control and 97 % of control | dose: 3.12 mg/kg/injection, schedule: Q04DX003 (ip), vehicle: saline 95 % of control | dose: 6.0 mg/kg/injection, schedule: Q04DX003 (ip), vehicle: saline 108 % of control | dose: 6.25 mg/kg/injection, schedule: Q04DX003 (ip), vehicle: saline 96 % of control | dose: 12.0 mg/kg/injection, schedule: Q04DX003 (ip), vehicle: saline 104 % of control and 122 % of control | dose: 12.5 mg/kg/injection, schedule: Q04DX003 (ip), vehicle: saline 120 % of control | [9] 124 % of control

Nc1c[nH]ccc1=O
inactive: [17] 102 % of control | [18] 100 % of control | dose: 400.0 mg/kg/injection, schedule: Q01DX009 (ip), vehicle: saline 99 % of control

COc1ccc(S(=O)(=O)c2coc3ccc(C)cc3c2=O)cc1
inactive: [3] 100 % of control | [4] 96 % of control | [5] 95 % of control

Oc1ccccc1C=NCCCN=Cc1ccccc1O
inactive: dose: 18.75 mg/kg/injection, schedule: Q01DX009 (ip), vehicle: saline with Tween-80 103 % of control | dose: 37.5 mg/kg/injection, schedule: Q01DX009 (ip), vehicle: saline with Tween-80 110 % of control | [14] 109 % of control | dose: 75.0 mg/kg/injection, schedule: Q01DX009 (ip), vehicle: saline with Tween-80 111 % of control | [16] 121 % of control | dose: 400.0 mg/kg/injection, schedule: Q01DX009 (ip), vehicle: saline with Tween-80 119 % of control

Oc1ccccc1C1=CC=NCCN1
inactive: [12] 96 % of control | [13] 101 % of control | [3] 101 % of control

CC1=Nc2ccccc2NC(C)(C)C1
inactive: [19] 103 % of control | [17] 100 % of control | [18] 100 % of control

C=C(C#N)COc1ccc(Cl)cc1C
inactive: dose: 12.5 mg/kg/injection, schedule: Q01DX009 (ip), vehicle: Klucel (hydroxypropylcellulose) (HPC) 101 % of control | dose: 25.0 mg/kg/injection, schedule: Q01DX009 (ip), vehicle: Klucel (hydroxypropylcellulose) (HPC) 98 % of control | dose: 50.0 mg/kg/injection, schedule: Q01DX009 (ip), vehicle: Klucel (hydroxypropylcellulose) (HPC) 104 % of control and 95 % of control

COC(=O)C1(OC(C)=O)C(=O)NC2=C1C(=O)c1ccccc1C2=O (stereo not drawn)
inactive: dose: 12.5 mg/kg/injection, schedule: Q01DX005 (ip), vehicle: saline with Tween-80 102 % of control | dose: 25.0 mg/kg/injection, schedule: Q01DX005 (ip), vehicle: saline with Tween-80 104 % of control | [1] 110 % of control and 113 % of control

CCN(CC)CCn1ncc(Sc2cc([N+](=O)[O-])ccc2N)c(Cl)c1=O
inactive: [3] 100 % of control | [4] 89 % of control

CC(C)(C)N=C(CCSc1ccccc1)Nc1c(Cl)cccc1Cl
inactive: [14] 100 % of control | [15] 105 % of control | [16] 96 % of control

Nc1nc(SCc2ccccc2Cl)c2[nH]cnc2n1
inactive: [8] 100 % of control

CC(=O)Nc1ccc(S(=O)(=O)CC(N)=O)cc1
inactive: dose: 12.5 mg/kg/injection, schedule: Q01DX009 (ip), vehicle: saline 105 % of control | dose: 25.0 mg/kg/injection, schedule: Q01DX009 (ip), vehicle: saline 104 % of control | [19] 107 % of control | dose: 50.0 mg/kg/injection, schedule: Q01DX009 (ip), vehicle: suspension in saline 97 % of control

COc1cc(C2C(C(C)=O)=C(C)Oc3cc4c(cc32)OCO4)cc(OC)c1OC (stereo not drawn)
inactive: [13] 89 % of control | [3] 87 % of control and 89 % of control | [4] 90 % of control | [5] 87 % of control
